Results on nine molecules are retold here after PubChem BioAssay (NCI).

Molecules are shown by their SMILES. Several values for one entry are separate records, joined by “and”; a condition that tells them apart may be missing. Equal entries are not always repeated.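 How tested: cells in 96-well plates exposed to compound for 48 hours at five concentrations. GI50 = concentration required for 50% inhibition of growth. TGI: concentration producing complete growth inhibition.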

Among the test systems are ACHN renal; CCRF-CEM leukemia; K-562 leukemia; M14 melanoma; OVCAR-4 ovarian; OVCAR-5 ovarian; SK-OV-3 ovarian; TK-10 renal; UACC-257 melanoma; UACC-62 melanoma.
Holding throughout (assay): inhibition of tumour cell growth, NCI panel, 48 h

For `O=C(NOC[C@H](O)CO)c1ccc(F)c(F)c1Nc1ccc(I)cc1F`, the TGI with ACHN renal was over 100 µM; in the assay with CCRF-CEM leukemia, over 100 µM; with K-562 leukemia, over 100 µM; in the assay on M14 melanoma it was 0.0969 µM; with OVCAR-4 ovarian, over 100 µM; in the assay with OVCAR-5 ovarian, over 100 µM. Also, the TGI in the assay with SK-OV-3 ovarian is over 100 µM; in the assay with TK-10 renal, 86.2 µM and > 10 µM; with UACC-257 melanoma it was < 0.01 µM and 0.00947 µM. The GI50 is over 100 µM with CCRF-CEM leukemia; < 0.01 µM and 0.00132 µM with M14 melanoma; 8.76 µM and > 10 µM with OVCAR-4 ovarian; < 0.01 µM and 0.0036 µM in the assay with OVCAR-5 ovarian; 0.0314 µM and 0.0174 µM with TK-10 renal; < 0.01 µM and 0.00154 µM with UACC-257 melanoma. Moreover, the GI50 in the assay with UACC-62 melanoma was < 0.01 µM and 0.00155 µM.

Consider `COc1cc(F)c(F)c(Nc2ccc(I)cc2F)c1NS(=O)(=O)C1(C[C@H](O)CO)CC1`, for which the GI50 with ACHN renal was 0.897 µM; in the assay on CCRF-CEM leukemia it was over 9.26 µM; with K-562 leukemia, 1.34 µM; with M14 melanoma, 0.0242 µM; with OVCAR-4 ovarian, 3.44 µM; in the assay on OVCAR-5 ovarian it was 0.0597 µM. Besides, the GI50 in the assay with SK-OV-3 ovarian was 3.42 µM; in the assay with TK-10 renal, 0.135 µM; in the assay with UACC-257 melanoma, 0.0239 µM; in the assay on UACC-62 melanoma it was 0.0158 µM. The TGI was over 10 µM in the assay on ACHN renal; over 10 µM with CCRF-CEM leukemia; over 10 µM in the assay with K-562 leukemia; 1.59 µM with M14 melanoma; over 10 µM in the assay on OVCAR-4 ovarian; over 10 µM in the assay with OVCAR-5 ovarian. The TGI was over 10 µM with SK-OV-3 ovarian, over 10 µM in the assay on TK-10 renal, 0.2 µM with UACC-257 melanoma and 0.172 µM with UACC-62 melanoma.

`CCCNC(=O)C1C(=O)C(=O)N(CCC)C1=O` (stereo not given): the TGI in the assay on ACHN renal, in the assay on CCRF-CEM leukemia, in the assay with K-562 leukemia, with M14 melanoma, in the assay on OVCAR-4 ovarian and with OVCAR-5 ovarian was over 100 µM throughout. In addition, the TGI with SK-OV-3 ovarian, in the assay on TK-10 renal, in the assay on UACC-257 melanoma and in the assay on UACC-62 melanoma was over 100 µM in each case.

On to `COc1cc2ncn(-c3cc(OCc4ccccc4C(F)(F)F)c(C(=O)N(C)C)s3)c2cc1OC`, for which the GI50 in the assay on ACHN renal is over 25 µM; with CCRF-CEM leukemia it was over 22.1 µM; in the assay on K-562 leukemia it was over 21.3 µM; with M14 melanoma, over 25 µM; with OVCAR-4 ovarian it was 18.1 µM; in the assay on OVCAR-5 ovarian, over 25 µM. For the same molecule, the GI50 was over 16 µM in the assay with SK-OV-3 ovarian, over 22.6 µM in the assay on TK-10 renal, over 25 µM in the assay with UACC-257 melanoma and 21.6 µM in the assay on UACC-62 melanoma. The TGI with ACHN renal, with CCRF-CEM leukemia, in the assay on K-562 leukemia, with M14 melanoma, with OVCAR-4 ovarian and with OVCAR-5 ovarian was over 25 µM each time. The TGI in the assay on SK-OV-3 ovarian, in the assay on TK-10 renal, in the assay on UACC-257 melanoma and in the assay with UACC-62 melanoma was over 25 µM throughout.

Consider `O=C(CCC(=O)Nc1ccc(Cl)c(Cl)c1)CC(=O)c1ccc(Br)cc1`, for which the TGI in the assay on ACHN renal, in the assay with CCRF-CEM leukemia, with K-562 leukemia, with M14 melanoma, with OVCAR-4 ovarian and with OVCAR-5 ovarian was over 100 µM throughout. Also, the TGI with SK-OV-3 ovarian, with TK-10 renal, with UACC-257 melanoma and in the assay on UACC-62 melanoma was over 100 µM each time.

`CN(CCCCCl)P(=O)(OCCS(=O)(=O)CC(NC(=O)CCC(N)C(=O)O)C(=O)NC(C(=O)O)c1ccccc1)OCC1OC(n2ccc(N)nc2=O)C(F)(F)C1O` (stereo not given): the TGI in the assay on ACHN renal was over 33.8 µM; with CCRF-CEM leukemia, over 100 µM; in the assay on K-562 leukemia, over 100 µM; in the assay on M14 melanoma, 0.435 µM; with OVCAR-4 ovarian, over 100 µM; in the assay with OVCAR-5 ovarian, over 100 µM. Moreover, the TGI in the assay on SK-OV-3 ovarian was over 100 µM; with TK-10 renal, over 100 µM; in the assay with UACC-257 melanoma, over 100 µM; with UACC-62 melanoma, over 65.4 µM. In addition, the GI50 was 0.0897 µM in the assay with CCRF-CEM leukemia; 1.58 µM with K-562 leukemia; 0.0369 µM with M14 melanoma; over 100 µM in the assay with OVCAR-4 ovarian; 0.872 µM in the assay on OVCAR-5 ovarian; 0.784 µM in the assay on SK-OV-3 ovarian. For the same molecule, the GI50 is 32.8 µM with TK-10 renal, 25 µM in the assay with UACC-257 melanoma and 0.377 µM with UACC-62 melanoma.

`CC1=CC(=O)CC2(C)CC[C@@H]3C[C@]12OC3(C)C` (stereo not given in full): the TGI in the assay on ACHN renal, with CCRF-CEM leukemia, in the assay with K-562 leukemia, with M14 melanoma, in the assay with OVCAR-4 ovarian and in the assay with OVCAR-5 ovarian was over 100 µM each time. Also, the TGI in the assay on SK-OV-3 ovarian, with TK-10 renal, in the assay on UACC-257 melanoma and in the assay with UACC-62 melanoma was over 100 µM throughout.

With `COc1ccc(NC(=O)/C(=C/c2ccccc2)C(C)=O)cc1`, the TGI in the assay with ACHN renal was 42.2 µM; with CCRF-CEM leukemia it was 27.9 µM; in the assay on K-562 leukemia, over 100 µM; with M14 melanoma, 27.1 µM; with OVCAR-4 ovarian, 24.6 µM; in the assay on OVCAR-5 ovarian, 34.1 µM. Moreover, the TGI amounted to 95.1 µM with SK-OV-3 ovarian, 37.4 µM in the assay on TK-10 renal, 29.3 µM with UACC-257 melanoma and 22.3 µM with UACC-62 melanoma.

As for `CC[C@H](Nc1ncnc2nc[nH]c12)c1nc2cccc(F)c2c(=O)n1-c1ccccc1`, the GI50 is 10.7 µM with ACHN renal; 12.2 µM in the assay on CCRF-CEM leukemia; 30.2 µM with K-562 leukemia; 40.4 µM in the assay on M14 melanoma; over 100 µM with OVCAR-4 ovarian; 45 µM in the assay with OVCAR-5 ovarian. In addition, the GI50 in the assay with SK-OV-3 ovarian was 16.7 µM; with TK-10 renal, 12.5 µM; with UACC-257 melanoma it was 18.9 µM; with UACC-62 melanoma it was 3.52 µM. Further, the TGI in the assay with ACHN renal, in the assay on CCRF-CEM leukemia, in the assay on K-562 leukemia, in the assay with M14 melanoma, in the assay with OVCAR-4 ovarian and in the assay on OVCAR-5 ovarian was over 100 µM each time. Also, the TGI is over 100 µM in the assay with SK-OV-3 ovarian, over 100 µM in the assay with TK-10 renal, over 100 µM with UACC-257 melanoma and over 92.4 µM in the assay with UACC-62 melanoma.
